Test results from patent US7317125B2 (Hoffman-La Roche Inc., priority 2005, dated 2008).

Biological target: T1, DGAT1 (Homo sapiens, UniProt O75907)
T1 construct: expressed in transfected cells; host or cells: CHOK1
T1 sequence (O75907 1-488): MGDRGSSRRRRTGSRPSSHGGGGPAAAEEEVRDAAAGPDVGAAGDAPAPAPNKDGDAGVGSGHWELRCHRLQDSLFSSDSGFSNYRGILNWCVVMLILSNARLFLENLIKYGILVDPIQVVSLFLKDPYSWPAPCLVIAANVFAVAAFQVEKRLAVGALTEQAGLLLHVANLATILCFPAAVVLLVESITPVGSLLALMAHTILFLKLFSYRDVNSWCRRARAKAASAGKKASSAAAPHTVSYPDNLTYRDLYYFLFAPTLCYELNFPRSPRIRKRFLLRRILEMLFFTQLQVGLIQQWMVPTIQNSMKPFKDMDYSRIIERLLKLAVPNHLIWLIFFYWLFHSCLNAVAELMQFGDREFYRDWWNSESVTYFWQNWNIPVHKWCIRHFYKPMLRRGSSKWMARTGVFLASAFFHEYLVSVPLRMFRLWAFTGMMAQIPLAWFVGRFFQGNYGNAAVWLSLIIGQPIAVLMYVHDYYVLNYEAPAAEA
Assay: DGAT CHOK1 Cell Assay
Type: cell-based
Settings: CHOK1 cells transfected with DGAT1, 14C palmitic acid, 1 hour at 37° C., triglyceride by TLC
Description: Materials for the assay were: petroleum ether (J. T. Baker #9268-22); diethyl ether (Aldrich #30995-8); acetic acid; 1,2-dioleoyl-3-palmitoyl-glycerol (Sigma D-1782); ^[…] Palmitic Acid (56.0 mCi/mmol PerkinElmer Life Sciences # NEC 075H); DMEM/F12 (Gibco #11330-032); fetal bovine serum; L-Glutamine; G418/ml media; DMEM High Glucose (Gibco #11995-065); BSA Fraction V Fatty Acid Free (Roche #100 377); 20×°cm silica gel 60 glass plates (EM Science Plates #5721/7).
CHOK1/DGAT cell culture medium was prepared with DMEM/F12 (Gibco #11330-032), […], and 20 ul G418/ml media. 1,2-dioleoyl-3-palmitoyl-glycerol was prepared by dissolving 10 mg into 1 ml chloroform and stored at −20° C. in 100 μl aliquots. Test compounds were prepared as 10 mM stock solutions in DMSO and store at −20° C. before use. Test dilutions were prepared by five fold serial dilutions over final concentrations.
CHOK1 cells transfected with DGAT1 were diluted in 6 well plates at 2.5×10^5 cells per well and cultured overnight. Cells were then washed twice with PBS. Test compound solutions (10 μl/2 ml media aliquots) in DMEM High Glucose with 0.01% BSA (fatty acid free) were added to cell culture plates at 800 μl per well. ^14C Palmitic acid (0.5 μCi, 5 μl) was added to each well. The plates were incubated for 1 hour at 37° C. After the incubation period, the plates were placed on ice, cells were scraped into media and transferred to microfuge tubes. 400 μl chloroform:methanol (2:1) was added to each tube. Each tube was briefly vortexed by hand, then mechanically vortexed for 10 minutes. Each tube was then centrifuged at 14,000 RPM for 10 minutes at 4° C. and the bottom layer removed and transferred to a new microfuge tube.
Extracted samples were spotted onto TLC plates at 20 μl per lane. The TLC plates were eluted with a solvent mixture of petroleum ether, diethyl ether and acetic acid (80:20:1) and air dried. Trigylceride (TG) spots were visualized by placing in an iodine chamber for several minutes. 1 μl of ^14C palmitic acid (diluted 1:10 in 100% EtOH) was spotted on the TG standard lane (at TG level) as a reference. The TLC plates were wrapped in plastic wrap and placed in a phosphorimager cassette for scanning.
The EC50 values for those compounds tested in this Example were generated using an Excel template, the results of which are shown in Table II: […]

EC50 [nM] | Structure (SMILES)
310 | CSc1ccccc1-c1cc(F)ccc1OCC(=O)N(NC(=O)c1ccccc1)C(C)C [Example 13, benzoic acid N′-[2-(5-fluoro-2′-methylsylfanyl-biphenyl-2-yloxy)-acetyl]-N′-isopropyl-hydrazide]
1810 | COc1ccccc1-c1cc(F)ccc1OCC(=O)N(NC(=O)c1ccccc1)C(C)C [Example 4, benzoic acid N′-[2-(5-fluoro-2′-methoxy-biphenyl-2-yloxy)-acetyl]-N′-isopropyl-hydrazide]
328 | CC(C)N(NC(=O)c1ccccc1)C(=O)COc1ccc(F)cc1-c1ccccc1OC(F)(F)F [Example 20, benzoic acid N′-[2-(5-fluoro-2′-trifluoromethoxy-biphenyl-2-yloxy)-acetyl]-N′-isopropyl-hydrazide]
2100 | CCc1ccccc1-c1cc(F)c(F)cc1OCC(=O)N(NC(=O)c1ccccc1)C(C)C [Example 27, benzoic acid N′-[2-(2′-ethyl-4,5-difluoro-biphenyl-2-yloxy)-acetyl]-N′-isopropyl-hydrazide]
8300 | CC(C)N(NC(=O)c1ccccc1)C(=O)COc1ccc(F)cc1-c1ccc(F)cc1 [Example 1, benzoic acid N′-[2-(5,4′-difluoro-biphenyl-2-yloxy)-acetyl]-N′-isopropyl-hydrazide]
296 | CCc1ccccc1-c1cc(F)cc(F)c1OCC(=O)N(NC(=O)c1ccccc1)C(C)C [Example 28, benzoic acid N′-[2-(2′-ethyl-3,5-difluoro-biphenyl-2-yloxy)-acetyl]-N′-isopropyl-hydrazide]
2210 | CC(C)N(NC(=O)c1ccccc1)C(=O)COc1ccc(F)cc1-c1ccccc1F [Example 5, benzoic acid N′-[2-(5,2′-difluoro-biphenyl-2-yloxy)-acetyl]-N′-isopropyl-hydrazide]
380 | CC(C)c1ccccc1-c1cc(F)ccc1OCC(=O)N(NC(=O)c1ccccc1)C(C)C [Example 22, benzoic acid N′-[2-(5-fluoro-2′-isopropyl-biphenyl-2-yloxy)-acetyl]-N′-isopropyl-hydrazide]
2690 | COC(=O)c1ccccc1-c1cc(F)ccc1OCC(=O)N(NC(=O)c1ccccc1)C(C)C [Example 18, benzoic acid N′-[2-(2′-methoxycarbonyl-5-fluoro-biphenyl-2-yloxy)-acetyl]-N′-isopropyl-hydrazide]
216 | CCc1ccccc1-c1cc(F)ccc1OCC(=O)N(NC(=O)c1ccccc1)C(C)C [Example 16, benzoic acid N′-[2-(2′-ethyl-5-fluoro-biphenyl-2-yloxy)-acetyl]-N′-isopropyl-hydrazide]
3100 | CC(C)N(NC(=O)c1ccccc1)C(=O)COc1ccc(F)cc1-c1ccccc1Cl [Example 2, benzoic acid N′-[2-(2′-chloro-5-fluoro-biphenyl-2-yloxy)-acetyl]-N′-isopropyl-hydrazide]
5670 | Cc1cccc(-c2ccccc2SCC(=O)N(NC(=O)c2ccccc2)C(C)C)c1C [Example 49, benzoic acid N′-[2-(2′,3′-dimethyl-biphenyl-2-ylsulfanyl)-acetyl]-N′-isopropyl-hydrazide]
1340 | CCOc1ccccc1-c1cc(F)ccc1OCC(=O)N(NC(=O)c1ccccc1)C(C)C [Example 21, benzoic acid N′-[2-(2′-ethoxy-5-fluoro-biphenyl-2-yloxy)-acetyl]-N′-isopropyl-hydrazide]
1010 | CC(C)c1cccc(-c2cc(F)ccc2OCC(=O)N(NC(=O)c2ccccc2)C(C)C)c1 [Example 12, benzoic acid N′-[2-(5-fluoro-3′-isopropyl-biphenyl-2-yloxy)-acetyl]-N′-isopropyl-hydrazide]
356 | CC(C)N(NC(=O)c1ccccc1)C(=O)COc1c(F)cc(F)cc1-c1ccccc1OC(F)(F)F [Example 33, benzoic acid N′-[2-(3,5-difluoro-2′-trifluoromethoxy-biphenyl-2-yloxy)-acetyl]-N′-isopropyl hydrazide]
776 | Cc1ccc(OCC(=O)N(NC(=O)c2ccccc2)C(C)C)c(-c2ccccc2OC(F)(F)F)c1 [Example 31]
37400 | CC(C)N(NC(=O)c1ccccc1)C(=O)CSc1ccccc1-c1ccccc1 [Example 56, benzoic acid N′-[2-(biphenyl-2-ylsulfanyl)-acetyl]-N′-isopropyl-hydrazide]
3780 | CC(C)N(NC(=O)c1ccccc1)C(=O)COc1ccc(F)cc1-c1cccc(F)c1 [Example 9, benzoic acid N′-[2-(5,3′-difluoro-biphenyl-2-yloxy)-acetyl]-N′-isopropyl-hydrazide]
230 | CC(C)N(NC(=O)c1ccccc1)C(=O)COc1ccc(F)cc1-c1ccccc1[N+](=O)[O-] [Example 14, benzoic acid N′-[2-(5-fluoro-2′-nitro-biphenyl-2-yloxy)-acetyl]-N′-isopropyl-hydrazide]
1370 | Cc1cc(F)ccc1-c1cc(F)ccc1OCC(=O)N(NC(=O)c1ccccc1)C(C)C [Example 25, benzoic acid N′-[2-(5,4′-difluoro-4′-methyl-biphenyl-2-yloxy)-acetyl]-N′-isopropyl-hydrazide]
1600 | CC(C)N(NC(=O)c1ccccc1)C(=O)CSc1ccccc1-c1cccc(C(F)(F)F)c1 [Example 52, benzoic acid N′-[2-(3′-trifluoromethyl-biphenyl-2-ylsulfanyl)-acetyl]-N′-isopropyl-hydrazide]
2300 | COc1ccc(-c2ccccc2SCC(=O)N(NC(=O)c2ccccc2)C(C)C)cc1 [Example 55, benzoic acid N′-[2-(4′-methoxy-biphenyl-2-ylsulfanyl)-acetyl]-N′-isopropyl-hydrazide]
880 | CCc1ccccc1-c1cc(C)ccc1OCC(=O)N(NC(=O)c1ccccc1)C(C)C [Example 26, benzoic acid N′-[2-(2′-ethyl-5-methyl-biphenyl-2-yloxy)-acetyl]-N′-isopropyl-hydrazide]
1430 | CC(C)N(NC(=O)c1ccccc1)C(=O)CSc1ccccc1-c1ccccc1F [Example 54, benzoic acid N′-[2-(2′-fluoro-biphenyl-2-ylsulfanyl)-acetyl]-N′-isopropyl-hydrazide]
938 | CC(C)N(NC(=O)c1ccccc1)C(=O)COc1cc(F)c(F)cc1-c1ccccc1OC(F)(F)F [Example 32, benzoic acid N′-[2-(4,5-difluoro-2′-trifluoromethoxy-biphenyl-2-yloxy)-acetyl]-N′-isopropyl hydrazide]
4900 | CC(C)N(NC(=O)c1ccccc1)C(=O)CSc1ccccc1-c1ccc(F)cc1 [Example 51, benzoic acid N′-[2-(4′-fluoro-biphenyl-2-ylsulfanyl)-acetyl]-N′-isopropyl-hydrazide]
1850 | CC(C)N(NC(=O)c1ccccc1)C(=O)COc1ccc(F)cc1-c1ccccc1 [Example 11, benzoic acid N′-[2-(5-fluoro-biphenyl-2-yloxy)-acetyl]-N′-isopropyl-hydrazide]
1830 | CCc1ccccc1-c1cc(F)ccc1OCC(=O)N(NC(=O)c1ccc(OCCOC)cc1)C(C)C [Example 30, 4-(2-methoxy-ethoxy)-benzoic acid N′-[2-(5-fluoro-2′-ethyl-biphenyl-2-yloxy)-acetyl]-N′-isopropyl hydrazide]
3400 | CC(C)N(NC(=O)c1ccccc1)C(=O)CSc1ccccc1-c1cccc(F)c1 [Example 48, benzoic acid N′-[2-(3′-fluoro-biphenyl-2-ylsulfanyl)-acetyl]-N′-isopropyl-hydrazide]
3050 | COCCOc1ccc(C(=O)NN(C(=O)COc2ccc(F)cc2-c2ccccc2OC(F)(F)F)C(C)C)cc1 [Example 39, 4-(2-methoxy-ethoxy)-benzoic acid N′-[2-(5-fluoro-2′-trifluoromethoxy-biphenyl-2-yloxy)-acetyl]-N′-isopropyl hydrazide]
